{
  "source": "patent US8790712B2",
  "about": "“Constitutional function-improving agents” (Cosmo Oil Co., Ltd., priority 2004, dated 2014)",
  "key": {"[1]": {"test_system": "Mice (35 to 45 weeks old, BALB/cAJc1)", "experiment": "Migration distance in cage for 5 minutes (Example 4)", "format": "in vivo, mouse", "settings": "10 mg/kg orally once a day for 7 days; for Exercise quantity (m): migration distance in 5 minutes", "procedure": "Mice (35 to 45 weeks old, BALB/cAJc1) preliminary raised for 1 week were injected with 10 mg of ALA hydrochloride per 1 kg mouse body weight once a day for 7 days continuously. ALA hydrochloride was adjusted to a concentration of 0.5 g/ml with distilled water and orally administered to the mice. After the test, the mouse was put into a cage of 20 cm×20 cm in floor area, and its migration distance was measured for 5 minutes. The test was carried out using 5 male and 5 female mice, a total of 10 animals, for each plot, and the values were shown by average value. It was confirmed that the migration distance is long and the capacity for locomotion is improved in both cases of male and female in the ALA-treated plot."}, "[2]": {"test_system": "ALA dehydrase (ALAD)", "experiment": "ALAD activity of blood (Example 5)", "format": "in vivo, mouse", "settings": "male mice, 10 mg/kg orally once a day for 7 days", "procedure": "(§1) Mice (35 to 45 weeks old, BALB/cAJc1) preliminary raised for 1 week were injected with 10 mg of ALA hydrochloride per 1 kg mouse body weight once a day for 7 days continuously. ALA hydrochloride was adjusted to a concentration of […] with distilled water and orally administered to the mice. After the test, each mouse was sacrificed to collect mouse blood, and ALA dehydrase (ALAD) activity (the activity of ALA in which it is dimerized and thereby forms porphobilinogen (hereinafter referred to as “PBG”) as one molecule pyrrole substance) and porphobilinogen deaminase (PBGD) activity (the activity to convert from PBG to hydroxymethylbilane) per 1 ml of the blood were measured. […] To 0.02 ml of heparin-treated mouse whole blood, 0.33 ml of distilled water was added, the mixture was adjusted to a total volume of 0.5 ml by adding thereto 0.05 ml of 0.5 M Na-phosphate buffer (pH 6.4), 0.05 ml of 0.1 M DTT (containing 1 mM ZnSO4) and 0.05 ml of 50 mM ALA hydrochloride and was kept at 37° C. for 30 minutes, the reaction was stopped by adding 0.5 ml of 1 M trichloroacetic acid, and then Ehrlich reagent was added to a supernatant after centrifugation at 3000 rpm in the same volume, and precisely 10 minutes thereafter, absorbance at 553 nm, which is a characteristic absorbance of the compound formed by the reaction of Ehrlich reagent with PBG, was measured (OD) using a spectrophotometer. […]"}, "[3]": {"test_system": "porphobilinogen deaminase (PBGD)", "experiment": "PBGD activity of blood (Example 5)", "format": "in vivo, mouse", "settings": "male mice, 10 mg/kg orally once a day for 7 days", "procedure": "as §1"}, "[4]": {"test_system": "LW·D piglets", "experiment": "Body weight gain of piglets fed ALA hydrochloride for 6 weeks (Example 8)", "format": "in vivo, pig", "from_the_text": "LW·D piglets produced on the same day at a swinery were purchased 3 times, each time for 14 animals (each 7 animals of castrates and females), and subjected to preliminary raising for 9 to 12 days to confirm that their healthy state is normal, and then 12 animals (each 6 animals of castrates and females) were selected for each time and used in the test. The test plots were set to a total of 3 plots of a control plot in which a control feed (Table 8) without adding ALA hydrochloride is provided, and 2 test plots in which 10 ppm or 50 ppm of ALA hydrochloride is added to the feed and provided. The piglets to be tested were divided into 3 groups, each group including 4 animals (each 2 animals of castrates and females), in such a manner that distribution of body weight became almost uniform, and 1 groups was allotted to each plot and raised for 6 weeks. The swinery used in the test was an open type swinery in which a pig chamber of 1.8×2.7 m concrete floor was arranged in a row of 14 chambers, and group feeding was carried out using adjoining 3 pig chambers for each block. Rice straws were used as the bedding. A warm-keeping box was arranged in each pig chamber for 3 weeks after start of the test. The feed and drinking water were constantly provided. Body weight gain was calculated by measuring individual body weight at intervals of 1 week from the start of the test."}},
  "data": [
    {"compound": "NCC(=O)CCC(=O)O", "note": "[ALA, 5-aminolevulinic acid]", "values": [
      {"measurement": "Symptoms such as abnormal stimulation and action", "setting": "[1]; ALA-treated mice during the test", "result": "symptoms such as abnormal stimulation and action were not observed"},
      {"measurement": "Exercise quantity (m)", "setting": "[1]; female mice", "result": 25.5, "unit": "m"},
      {"measurement": "Exercise quantity (m)", "setting": "[1]; male mice", "result": 41, "unit": "m"},
      {"measurement": "ALAD activity", "setting": "[2]", "result": 1.76, "unit": "μmol PBG/ml RBC/h"},
      {"measurement": "PBGD activity", "setting": "[3]", "result": 67.36, "unit": "nmol URO/ml RBC/h"},
      {"measurement": "Growth (growth curves, body weight gain)", "setting": "[4]; 10 ppm in feed", "result": "superior growth than the control plot"},
      {"measurement": "Growth (growth curves, body weight gain)", "setting": "[4]; 50 ppm in feed", "result": "superior growth than the control plot"},
      {"measurement": "Health state", "setting": "[4]; ALA-treated groups, 10 ppm or 50 ppm in feed", "result": "abnormal health state was not fund"}
    ]}
  ]
}
